According to US9107959B2, “Method for site-specific polyvalent display on polymers” (priority 2006, dated 2015):

Assay: Cyclic voltammetry (electrochemical analyses)
Assay type: physicochemical
Settings: 0.5 mM in water, NaCl 50 mM
Description: Ethynylferrocene (1.05 mg, 5.0 μmol) was dissolved in 10 mL HPLC grade water. NaCl (29.22 mg, 0.5 mmol) was added to the solution as a supporting electrolyte. Similarly, solutions of 10 mL water, 6.3 mg (5.0 μmol) peptoid 13 or 4.8 mg (5.0 μmol) peptoid 14 and 29.22 mg (0.5 mmol) NaCl were prepared. The following techniques were performed identically on 0.5 mM ethynylferrocene (50 mM NaCl), 0.5 mM 13 (50 mM NaCl) or 0.5 mM 14 (50 mM NaCl). Approximately 4 mL of solution was transferred to an electrochemical cell and subjected to cyclic voltammetry (CV) experiments. Cyclic voltammetry was conducted using a CH Instruments 600A Electrochemical Analyzer and CV curves were generated using software developed by CH Instruments. Current (μA) versus Potential (V) was measured across a freshly polished CHI104 3 mm diameter glassy carbon disk working electrode (CH Instruments) with a Ag/AgCl (3 M KCl) reference electrode (CH Instruments) and a Pt wire […] (scan rate=9.0 mV s^−1).
To test the effect of triazole conjugation on ferrocene redox properties, compound 13 was purified to >96% as determined by RP-HPLC and the electrochemical behavior of ethynylferrocene and 13 were compared using cyclic voltammetry (CV). Additionally, the influence of the estradiol group on the redox potential of the neighboring ferrocene moiety was evaluated by comparing the electrochemical characteristics of 13 with its azido-functionalized precursor 14. CV experiments were carried out at room temperature using previously described methods (Casas-Solvas et al., Org. Lett. 2004, 6, 3687). CV was performed on solutions of ethynylferrocene (0.5 mM), 13 (0.5 mM) or 14 (0.5 mM) prepared in water with NaCl (50 mM) as a supporting electrolyte, using a Ag/AgCl (KCl 3 M) reference electrode, a freshly polished glassy carbon working electrode, and a Pt wire counter electrode with a scan rate of 9.0 mV s^−1. The values of the formal redox potential)(E^o) and the half-peak potential (Ep/2) of ethynylferrocene, 13 and 14 are shown in Table 1. […]

[1] = glassy carbon working electrode, Ag/AgCl reference, scan rate 9.0 mV s^-1

Substance: Ethynylferrocene
- Redox behaviour in cyclic voltammograms (ferrocene/ferrocenium) (FIG. 5): reversible redox couples
- Ep/2 (half-peak potential) [1]: 0.525 V
- E° (formal redox potential) [1]: 0.512 V
